Laboratory results from ChEMBL document CHEMBL1135048, “Synthesis and biological evaluation of 2-indolyloxazolines as a new class of tubulin polymerization inhibitors. Discovery of A-289099 as an orally active antitumor agent” (Bioorg Med Chem Lett, 2002).
Converted amounts (≈) assume the structure as drawn.

Assays:
[1] = system: HCT-15; experiment: Antiproliferative activity against the MDR positive human colon adenocarcinoma cell line HCT-15; type: functional, cell-based
[2] = system: NCI-H460; experiment: Antiproliferative activity against the human non small cell lung carcinoma cell line NCI-H460; type: functional, cell-based
[3] = Oral bioavailability in rat (dose single 10 mg/kg); type: ADME, organism-based; conditions: in vivo
[4] = Half life period in monkey after 5 mg/kg dose; type: ADME, organism-based; parameters: dose 5 mg/kg; conditions: cercopithecidae, in vivo
[5] = Area under curve value in dog at a dose of 5 mg/kg; type: ADME, organism-based, Canis lupus familiaris; parameters: dose 5 mg/kg; conditions: in vivo
[6] = Area under curve value in mouse at a dose of 10 mg/kg; type: ADME, organism-based; parameters: dose 10 mg/kg; conditions: in vivo
[7] = Half life period in mouse after 10 mg/Kg dose; type: ADME, organism-based; conditions: in vivo
[8] = (§1) Inhibition of bovine brain microtubule polymerization; type: functional, Bos taurus
[9] = Oral bioavailability in dog (dose 5 mg/kg); type: ADME, organism-based, Canis lupus familiaris; conditions: in vivo
[10] = Oral bioavailability in rat (dose 5 mg/kg; type: ADME, organism-based; conditions: in vivo
[11] = Area under curve value in monkey at a dose of 5 mg/kg; type: ADME, organism-based; parameters: dose 5 mg/kg; conditions: cercopithecidae, in vivo
[12] = Half life period in dog after 5 mg/kg dose; type: ADME, organism-based, Canis lupus familiaris; parameters: dose 5 mg/kg; conditions: in vivo
[13] = Oral bioavailability in mouse (dose 10 mg/kg); type: ADME, organism-based; conditions: in vivo
[14] = Half life period in rat after 5 mg/Kg dose; type: ADME, organism-based; conditions: in vivo
[15] = Area under curve value in rat at a dose of 5 mg/kg; type: ADME, organism-based; parameters: dose 5 mg/kg; conditions: in vivo
[16] = Oral bioavailability in monkey (dose 5 mg/kg); type: ADME, organism-based; conditions: cercopithecidae, in vivo
[17] = target: T1, Tubulin beta chain (Bos taurus, UniProt Q6B856); experiment: Binding constant at colchicine site of bovine brain tubulin
[18] = target: T1, Tubulin beta chain; experiment: Activity towards binding at colchicine site of bovine brain tubulin
[19] = species: Bos taurus; experiment: as §1; type: functional
[20] = Partition coefficient of compound; type: physicochemical; conditions: octanol/water
[21] = system: Mus musculus; experiment: In vivo efficacy to delay 1 g volume of M5076 murine ovarian sarcoma formation in mice at a dose of 50 mg/Kg/day; type: functional
[22] = system: HCT-15; experiment: Inhibitory concentration of compound against of microtubule […] in human HCT-15 colon carcinoma; type: functional, cell-based
[23] = Half life period in rat after 5 mg/kg dose; type: ADME, organism-based; parameters: dose 5 mg/kg; conditions: in vivo
[24] = Solubility of compound in 0.1 M HCl; type: physicochemical; conditions: read-out: S
[25] = system: Mus musculus; experiment: In vivo efficacy to delay 1 g volume of M5076 murine ovarian sarcoma formation in mice at a dose of 100 mg/Kg/day; type: functional
[26] = system: Mus musculus; experiment: Increase in life span of M5076 murine ovarian sarcoma bearing mice at a dose of 100 mg/kg/day; type: functional
[27] = system: A549; experiment: Activity against human lung cancer with mutated beta-tubulin (A549-T2415); type: functional, cell-based
[28] = system: Mus musculus; experiment: Increase in life span of M5076 murine ovarian sarcoma bearing mice at a dose of 50 mg/Kg/day; type: functional
[29] = Solubility of compound in pH 7.4 phosphate buffer; type: physicochemical
[30] = pKa of the compound; type: physicochemical
[31] = Half life period in mouse after 10 mg/kg dose; type: ADME, organism-based; parameters: dose 10 mg/kg; conditions: in vivo

T1 sequence (Q6B856 whole entry): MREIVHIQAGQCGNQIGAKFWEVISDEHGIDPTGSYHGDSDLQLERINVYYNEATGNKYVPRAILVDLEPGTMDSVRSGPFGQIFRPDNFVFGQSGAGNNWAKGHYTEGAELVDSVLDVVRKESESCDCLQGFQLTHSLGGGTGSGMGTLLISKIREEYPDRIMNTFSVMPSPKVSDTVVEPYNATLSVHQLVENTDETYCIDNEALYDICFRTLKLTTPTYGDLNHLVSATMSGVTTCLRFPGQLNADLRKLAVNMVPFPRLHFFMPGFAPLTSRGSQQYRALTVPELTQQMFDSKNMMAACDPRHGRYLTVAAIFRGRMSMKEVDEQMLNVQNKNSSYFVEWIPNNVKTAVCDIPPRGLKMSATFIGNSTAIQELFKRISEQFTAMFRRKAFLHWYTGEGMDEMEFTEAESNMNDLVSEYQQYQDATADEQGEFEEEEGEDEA

COc1cc2c(c(OC)c1OC)-c1ccc(OC)c(=O)cc1[C@@H](NC(C)=O)CC2 [COLCHICINE]
IC50 [1]: 140 nM | IC50 [2]: 46 nM

COc1cc(C2CN=C(c3cccc4[nH]ccc34)O2)cc(OC)c1OC (centres undefined)
IC50 [1]: 61 nM | IC50 [2]: 57 nM | bioavailability [3]: 0%

COc1cc(C2CN=C(c3ccc4[nH]ccc4c3)O2)cc(OC)c1OC (centres undefined)
IC50 [1]: 200 nM | IC50 [2]: 100 nM | bioavailability [3]: 38.1%

COc1cc([C@@H]2CN=C(c3ccc4c(ccn4C)c3)O2)cc(OC)c1OC
IC50 [1]: 390 nM | half-life [4]: 1.4 h | AUC [5]: 330 ng·h/mL | AUC [6]: 400 ng·h/mL | half-life [7]: 1.3 h | IC50 [8]: 740000 nM | bioavailability [9]: 7% | bioavailability [10]: 44% | AUC [11]: 890 ng·h/mL | IC50 [2]: 460 nM | half-life [12]: 2.9 h | bioavailability [13]: 21% | half-life [14]: 1.3 h | AUC [15]: 3040 ng·h/mL | bioavailability [16]: 16.2%

COc1cc(C2CN=C(c3cccc4ccn(C)c34)O2)cc(OC)c1OC (centres undefined)
IC50 [1]: 15000 nM | IC50 [2]: 150000 nM

COc1cc(C2CN=C(c3ccc4c(ccn4C4CC4)c3)O2)cc(OC)c1OC (centres undefined)
IC50 [1]: 2900 nM | IC50 [2]: 2900 nM | bioavailability [3]: 55.8%

COc1cc(C2CN=C(c3ccc4c(ccn4S(C)(=O)=O)c3)O2)cc(OC)c1OC (centres undefined)
IC50 [1]: 16300 nM | IC50 [2]: 8180 nM

CC[C@]1(O)C[C@@H]2CN(CCc3c([nH]c4ccccc34)[C@@](C(=O)OC)(c3cc4c(cc3OC)N(C)[C@H]3[C@@](O)(C(=O)OC)[C@H](OC(C)=O)[C@]5(CC)C=CCN6CC[C@]43[C@@H]65)C2)C1 [VINBLASTINE]
IC50 [1]: 43 nM | IC50 [8]: 1000 nM | Ki [17]: > 100000 nM | IC50 [2]: 3.4 nM

COc1cc(C2CN=C(c3cc4ccccc4[nH]3)O2)cc(OC)c1OC (centres undefined)
IC50 [1]: 150 nM | IC50 [2]: 350 nM | bioavailability [3]: 40%

COc1cc(C2CN=C(c3ccc4nccn4c3)O2)cc(OC)c1OC (centres undefined)
IC50 [1]: 40000 nM | IC50 [2]: 16000 nM

COc1cc(C2CN=C(c3cccc4c3ccn4C)O2)cc(OC)c1OC (centres undefined)
IC50 [1]: 37 nM | IC50 [2]: 87 nM | bioavailability [3]: 2.5%

COc1cc(C2CN=C(c3ccc4cc[nH]c4c3)O2)cc(OC)c1OC (centres undefined)
IC50 [1]: 120 nM | IC50 [2]: 330 nM | bioavailability [3]: 10.5%

COc1cc(C2CN=C(c3ccc4c(c3)nc(C)n4C)O2)cc(OC)c1OC (centres undefined)
IC50 [1]: 1300 nM | IC50 [2]: 1200 nM

COc1cc(C2CN=C(c3ccc4c(c3)CCN4C)O2)cc(OC)c1OC (centres undefined)
IC50 [1]: 510 nM | IC50 [2]: 810 nM

CC(=O)O[C@H]1C(=O)[C@@]2(C)[C@H]([C@H](OC(=O)c3ccccc3)[C@]3(O)C[C@H](OC(=O)[C@H](O)[C@@H](NC(=O)c4ccccc4)c4ccccc4)C(C)=C1C3(C)C)[C@]1(OC(C)=O)CO[C@@H]1C[C@@H]2O [PACLITAXEL]
IC50 [2]: > 10 nM

COc1cc(C2CN=C(c3cccc4cc[nH]c34)O2)cc(OC)c1OC (centres undefined)
IC50 [1]: 540 nM | IC50 [2]: 470 nM | bioavailability [3]: 0%

COc1cc(C2CN=C(c3ccc4ncccc4c3)O2)cc(OC)c1OC (centres undefined)
IC50 [1]: 2400 nM | IC50 [2]: 3200 nM

COCn1ccc2cc(C3=NCC(c4cc(OC)c(OC)c(OC)c4)O3)ccc21 (centres undefined)
IC50 [1]: 480 nM | IC50 [2]: 680 nM | bioavailability [3]: 34.3%

COc1cc(C2CN=C(c3cnc4ccccc4c3)O2)cc(OC)c1OC (centres undefined)
IC50 [1]: 160000 nM | IC50 [2]: 270000 nM

COc1cc(C2CN=C(c3ccc4c(ccn4C)c3)O2)cc(OC)c1OC (centres undefined)
IC50 [1]: 16 nM | IC50 [2]: 14 nM | bioavailability [3]: 34.7%

COc1cc(C2CN=C(c3ccc4cncn4c3)O2)cc(OC)c1OC (centres undefined)
IC50 [1]: 28000 nM | IC50 [2]: 100000 nM

COc1cc(C2CN=C(c3ccc4c(c3)cc(C)n4C)O2)cc(OC)c1OC (centres undefined)
IC50 [1]: 170 nM | IC50 [2]: 210 nM

COc1cc(C2CN=C(c3ccnc4ccccc34)O2)cc(OC)c1OC (centres undefined)
IC50 [1]: 44000 nM | IC50 [2]: 37000 nM

COc1cc(C2OC(c3ccc(N)c(C)c3)=NN2C(C)=O)cc(OC)c1OC (centres undefined)
IC50 [18]: 3400 nM

CCn1ccc2cc(C3=NCC(c4cc(OC)c(OC)c(OC)c4)O3)ccc21 (centres undefined)
IC50 [1]: 70 nM | IC50 [2]: 49 nM | bioavailability [3]: 11.1%

COc1ccc(/C=C\c2cc(OC)c(OC)c(OC)c2)cc1O [COMBRETASTATIN A4]
IC50 [19]: 1600 nM

COc1cc(C2CN=C(c3ccc4ccn(C)c4c3)O2)cc(OC)c1OC (centres undefined)
IC50 [1]: 280 nM | IC50 [2]: 420 nM | bioavailability [3]: 0%

COc1cc(C2CN=C(c3ccc4c(ccn4CC(F)(F)F)c3)O2)cc(OC)c1OC (centres undefined)
IC50 [1]: 3800 nM | IC50 [2]: 4200 nM | bioavailability [3]: 19.8%

COc1cc(C2CN=C(c3ccc4[nH]cnc4c3)O2)cc(OC)c1OC (centres undefined)
IC50 [1]: 6400 nM | IC50 [2]: 7100 nM

COc1cc(C2CN=C(c3cc4ccccc4n3C)O2)cc(OC)c1OC (centres undefined)
IC50 [1]: 660 nM | IC50 [2]: 1500 nM

COc1cc([C@H]2CN=C(c3ccc4c(ccn4C)c3)O2)cc(OC)c1OC
logD [20]: 3.94 | IC50 [1]: 8.6 nM | Mean tumor delay [21]: 19 days | Concentration [22]: 44 nM | half-life [23]: 2.1 h | solubility [24]: 1270 µg/mL (≈ 3470 µM) | Mean tumor delay [25]: 28.4 days | half-life [4]: 1.3 h | AUC [5]: 160 ng·h/mL | ILS at 100 mg/kg/day [26]: 206% | AUC [6]: 5690 ng·h/mL | IC50 [8]: 2300 nM | bioavailability [9]: 6.5% | bioavailability [10]: 17.1% | AUC [11]: 1750 ng·h/mL | IC50 [27]: 6.3 nM | ILS at 50 mg/kg/day [28]: 139% | IC50 [2]: 6.2 nM | half-life [12]: 3.3 h | solubility [29]: 0.7 µg/mL (≈ 1.91 µM) | pKa [30]: 5 | bioavailability [13]: 15.1% | AUC [15]: 7180 ng·h/mL | bioavailability [16]: 18.6% | half-life [31]: 1.1 h

COc1cc(C2CN=C(c3ccc4cc(C)cn4c3)O2)cc(OC)c1OC (centres undefined)
IC50 [1]: 520 nM | IC50 [2]: 520 nM

COc1cc(C2CN=C(c3ccc4[nH]c(O)nc4c3)O2)cc(OC)c1OC (centres undefined)
IC50 [1]: 1200 nM | IC50 [2]: > 100000 nM

COc1cc(C2CN=C(c3cn(C)c4ccccc34)O2)cc(OC)c1OC (centres undefined)
IC50 [1]: 37 nM | IC50 [2]: 87 nM | bioavailability [3]: 2.5%

COc1cc(C2CN=C(c3c[nH]c4ccccc34)O2)cc(OC)c1OC (centres undefined)
IC50 [1]: 67 nM | IC50 [2]: 82 nM | bioavailability [3]: 0%
